“And” between values parts separate entries of the source, which are not always exact repeats. Identical values can stand only once. Like-named read-outs stand apart in the source and are kept apart here.
Columns and labels:
animal models = assay: Smoke-induced lung damage animal models; conditions: animal models in vivo
hamster = assay: Two year hamster carcinogenicity studies; format: in vivo
Experimental: No other treatment-related neoplastic findings were observed. Overall, the tumor-free level in the animals was 4 mg/kg/day.

experimental animals = assay: Infiltration of leukocytes into the lungs of experimental animals
[1] = tested on: patients with COPD and chronic cough and sputum production; assay: M2-125 study: 52-week placebo-controlled trial of oral roflumilast 500 μg once a day
Solubility in water = format: physicochemical; conditions: drug substance
[2] = tested on: patients with COPD and chronic cough and sputum production; conditions: M2-124

O=C(Nc1c(Cl)cncc1Cl)c1ccc(OC(F)F)c(OCC2CC2)c1 [Roflumilast, N-(3,5-dichloropyridin-4-yl)-3-cyclopropylmethoxy-4-difluoromethoxy-benzamide]
Smoke-induced destruction of lung parenchyma (animal models): reduced | Neoplastic findings (hamster; hamster, up to 16 mg/kg/day, two year): nasal neoplasms were caused by a drug metabolite, which is absent in humans | Tumor-free level in the animals (hamster; overall): 4 mg/kg/day | Infiltration of leukocytes, in particular neutrophils, into the lungs (experimental animals): inhibited | Change in C-reactive protein from baseline to last postrandomisation visit [1]: 1.1; n = 680 mg/L | Median time to first exacerbation (moderate or severe) [IQR] [1]: 73.0 (26.0-195.0); days | Median time to second exacerbation (moderate or severe) [IQR] [1]: 188.0 (84.0-281.0) days | Number of patients needed to treat to prevent one moderate or severe exacerbation per year [1]: 3.6 and 3.64 | Time to mortality (mean, SD) [1]: 201.0 days | Exacerbations moderate or severe, mean rate [95% CI] ([1]; 52 weeks): 1.21 (1.07-1.36); per patient, per year | Exacerbations moderate, mean rate [95% CI] ([1]; 52 weeks): 1.04 (0.92-1.18); per patient, per year | Exacerbations severe, mean rate [95% CI] ([1]; 52 weeks): 0.14 (0.10-0.20); per patient, per year | Exacerbations treated with systemic corticosteroids, antibiotics, or both, mean rate [95% CI] ([1]; 52 weeks): 1.17 (1.04-1.31); per patient, per year | Change in postbronchodillator FEV1/FVC ([1]; 52 weeks, mean): 0.552% | Change in prebronchodillator FEV1/FVC ([1]; 52 weeks, mean): 0.200% | Change in postbronchodillator FEF25-75 ([1]; 52 weeks, mean (SE)): 21 (5); n = 724 mL/s | Change in postbronchodillator FEV1 ([1]; 52 weeks, mean (SE)): 44 (7); n = 724 mL | Change in postbronchodillator FVC ([1]; 52 weeks, mean (SE)): 58 (13); mL | Change in postbronchodillator PEF ([1]; 52 weeks, mean (SE)): 1.93 (1.49); L/min | Change in prebronchodillator FEF25-75 ([1]; 52 weeks, mean (SE)): 15 (5); n = 730 mL/s | Change in prebronchodillator FEV1 ([1]; 52 weeks, mean (SE)): 33 (7); n = 730 mL | Change in prebronchodillator FVC ([1]; 52 weeks, mean (SE)): 60 (14); mL | Change in prebronchodillator PEF ([1]; 52 weeks, mean (SE)): 0.75 (1.45); L/min | Adverse event Influenza, difference ([1]; Roflumilast vs Placebo): −0.99% (−2.51 to 0.53) | Adverse event Upper respiratory tract infection, difference ([1]; Roflumilast vs Placebo): −0.57% (−2.75 to 1.62) | Change in C-reactive protein from baseline to last postrandomisation visit, difference ([1]; Roflumilast vs Placebo): Difference 1.1 mg/L | Change in postbronchodillator FEF25-75, difference ([1]; Roflumilast vs Placebo): Difference 29 (18 mL/s | Change in postbronchodillator FEV1, difference ([1]; Roflumilast vs Placebo): Difference 61 (44 mL | Change in postbronchodillator FEV1/FVC, difference ([1]; Roflumilast vs Placebo): Difference 0.668% | Change in postbronchodillator FVC, difference ([1]; Roflumilast vs Placebo): Difference 103 mL | Change in postbronchodillator PEF, difference ([1]; Roflumilast vs Placebo): Difference 5.07 L/min | Change in prebronchodillator FEF25-75, difference ([1]; Roflumilast vs Placebo): Difference 25 (13 mL/s | Change in prebronchodillator FEV1, difference ([1]; Roflumilast vs Placebo): Difference 58 (41 mL | Change in prebronchodillator FEV1/FVC, difference ([1]; Roflumilast vs Placebo): Difference 0.510% | Change in prebronchodillator FVC, difference ([1]; Roflumilast vs Placebo): Difference 108 mL | Change in prebronchodillator PEF, difference ([1]; Roflumilast vs Placebo): Difference 3.85 L/min | EQ-5D total score, difference ([1]; Roflumilast vs Placebo): Difference 0.0106 | TDI focal score, difference ([1]; Roflumilast vs Placebo): Difference 0.3 | Change in prebronchodillator FVC, difference ([1]; Roflumilast vs Placebo, listed as roflumilast): 108 mL | EQ-5D total score ([1]; mean): 0.0100 | TDI focal score ([1]; mean (SE)): 0.7 (0.1); | Adverse event Influenza, patients ([1]; n = 778): 12 (2%) number (%) | Solubility in water (Solubility in water): poorly soluble | Change in C-reactive protein from baseline to last postrandomisation visit [2]: 1.0; n = 691 mg/L | Median time to first exacerbation (moderate or severe) [IQR] [2]: 85.0 (29.5-185.5) days | Median time to second exacerbation (moderate or severe) [IQR] [2]: 172.0 days | Number of patients needed to treat to prevent one moderate or severe exacerbation per year [2]: 5.3 and 5.29 | Time to mortality (mean, SD) [2]: 213.8 days | Exacerbations moderate or severe, mean rate [95% CI] ([2]; 52 weeks): 1.08 (0.96-1.21); per patient, per year | Exacerbations moderate, mean rate [95% CI] ([2]; 52 weeks): 0.94 (0.83-1.06); per patient, per year | Exacerbations severe, mean rate [95% CI] ([2]; 52 weeks): 0.11 (0.07-0.15); per patient, per year | Exacerbations treated with systemic corticosteroids, antibiotics, or both, mean rate [95% CI] ([2]; 52 weeks): 1.10 (0.98-1.23); per patient, per year | Change in postbronchodillator FEV1/FVC ([2]; 52 weeks, mean): 0.488% | Change in prebronchodillator FEV1/FVC ([2]; 52 weeks, mean): 0.314% | Change in postbronchodillator FEF25-75 ([2]; 52 weeks, mean (SE)): 22 (6); mL/s | Change in postbronchodillator FEV1 ([2]; 52 weeks, mean (SE)): 57 (9); mL | Change in postbronchodillator FVC ([2]; 52 weeks, mean (SE)): 76 (15); mL | Change in postbronchodillator PEF ([2]; 52 weeks, mean (SE)): 8.08 (1.50); L/min | Change in prebronchodillator FEF25-75 ([2]; 52 weeks, mean (SE)): 19 (5); mL/s | Change in prebronchodillator FEV1 ([2]; 52 weeks, mean (SE)): 46 (8); mL | Change in prebronchodillator FVC ([2]; 52 weeks, mean (SE)): 68 (15); mL | Change in prebronchodillator PEF ([2]; 52 weeks, mean (SE)): 6.65 (1.45); L/min | Adverse event Influenza, difference ([2]; Roflumilast vs Placebo): 1.13% (−0.70 to 2.95) | Change in C-reactive protein from baseline to last postrandomisation visit, difference ([2]; Roflumilast vs Placebo): Difference 1.0 (0.8 mg/L | Change in postbronchodillator FEF25-75, difference ([2]; Roflumilast vs Placebo): Difference 11 (−5 mL/s | Change in postbronchodillator FEV1, difference ([2]; Roflumilast vs Placebo): Difference 49 (26 mL | Change in postbronchodillator FEV1/FVC, difference ([2]; Roflumilast vs Placebo): Difference 0.202 (−0.343% | Change in postbronchodillator FVC, difference ([2]; Roflumilast vs Placebo): Difference 101 (63 mL | Change in postbronchodillator PEF, difference ([2]; Roflumilast vs Placebo): Difference 4.21 L/min | Change in prebronchodillator FEF25-75, difference ([2]; Roflumilast vs Placebo): Difference 17 (3 to mL/s | Change in prebronchodillator FEV1, difference ([2]; Roflumilast vs Placebo): Difference 39 (18 mL | Change in prebronchodillator FEV1/FVC, difference ([2]; Roflumilast vs Placebo): Difference 0.312 (−0.262%

From patent US20120052122A1, “Treatment Of Chronic Obstructive Pulmonary Disease With Phosphodiesterase-4 Inhibitor” (Nycomed GmbH, priority 2010, published 2012)
